Data as given in the supplement of paper PMC10307832.

Legend:
Assay in all cases: relative viability (nuclei count vs DMSO), 5 days (fraction); higher = more cells survive
4EGI-1 + Lapatinib = compound: O=C(O)C(Cc1ccccc1[N+](=O)[O-])=NNc1nc(-c2ccc(Cl)c(Cl)c2)cs1 (mixture of isomers) [4EGI-1] + CS(=O)(=O)CCNCc1ccc(-c2ccc3ncnc(Nc4ccc(OCc5cccc(F)c5)c(Cl)c4)c3c2)o1 [Lapatinib] (partner 2 µM)
In short: (§1)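 Dosing by pin tool came one day after lung cancer cell lines were seeded in 1536-well plates, using either one drug or a fixed anchor-drug dose plus five library-drug doses (not always all listed) in √10 steps. After 5 days, nuclei were counted on 4× images. Relative viability is treated-well nuclei count divided by vehicle-well nuclei count, and values are medians of duplicate plates.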

XMD8-85 + Phenformin = compound: CN1CCN(CC1)C2=CC(=C(C=C2)NC3=NC=C4C(=N3)N(C5=CC=CC=C5C(=O)N4C)C)OC [XMD8-85] + N=C(N)NC(=N)NCCc1ccccc1 [Phenformin] (partner 250 µM)
In short: as §1

4EGI-1 + Bortezomib = compound: O=C(O)C(Cc1ccccc1[N+](=O)[O-])=NNc1nc(-c2ccc(Cl)c(Cl)c2)cs1 (mixture of isomers) [4EGI-1] + CC(C)C[C@H](NC(=O)[C@H](Cc1ccccc1)NC(=O)c1cnccn1)B(O)O [Bortezomib] (partner 0.002 µM)
In short: as §1

XMD8-85 + Tozasertib = compound: CN1CCN(CC1)C2=CC(=C(C=C2)NC3=NC=C4C(=N3)N(C5=CC=CC=C5C(=O)N4C)C)OC [XMD8-85] + Cc1cc(Nc2cc(N3CCN(C)CC3)nc(Sc3ccc(NC(=O)C4CC4)cc3)n2)n[nH]1 [Tozasertib] (partner 0.1 µM)
In short: as §1

Cell Line	relative viability (4EGI-1 + Lapatinib; first compound 0.5 µM)	relative viability (4EGI-1 + Lapatinib; first compound 1.581 µM)	relative viability (4EGI-1 + Lapatinib; first compound 5 µM)	relative viability (4EGI-1 + Lapatinib; first compound 15.81 µM)	relative viability (4EGI-1 + Lapatinib; first compound 50 µM)	relative viability (XMD8-85 + Phenformin; first compound 0.08 µM)	relative viability (XMD8-85 + Phenformin; first compound 0.253 µM)	relative viability (XMD8-85 + Phenformin; first compound 0.8 µM)	relative viability (XMD8-85 + Phenformin; first compound 2.53 µM)	relative viability (XMD8-85 + Phenformin; first compound 8 µM)	relative viability (4EGI-1 + Bortezomib; first compound 0.5 µM)	relative viability (4EGI-1 + Bortezomib; first compound 1.581 µM)	relative viability (4EGI-1 + Bortezomib; first compound 5 µM)	relative viability (4EGI-1 + Bortezomib; first compound 15.81 µM)	relative viability (4EGI-1 + Bortezomib; first compound 50 µM)	relative viability (XMD8-85 + Tozasertib; first compound 0.08 µM)	relative viability (XMD8-85 + Tozasertib; first compound 0.253 µM)	relative viability (XMD8-85 + Tozasertib; first compound 0.8 µM)	relative viability (XMD8-85 + Tozasertib; first compound 2.53 µM)	relative viability (XMD8-85 + Tozasertib; first compound 8 µM)
HARA	0.697	0.732	0.817	0.724	0.257	0.455	0.515	0.427	0.42	0.26	1.16	1.12	1.26	1.08	0.154	0.103	0.42	0.104	0.101	0.0877
UMC-11	1.19	0.825	1.31	1.17	0.669	0.337	0.348	0.398	0.33	0.232	1.04	0.872	0.669	0.679	0.255	0.251	0.209	0.233	0.248	0.197
BEN	0.786	0.854	0.734	0.573	0.612	0.275	0.266	0.267	0.306	0.258	0.848	1.22	0.903	0.754	0.604	0.467	–	0.426	0.331	0.457
EKVX	0.222	0.17	0.184	0.204	0.18	0.226	0.218	0.228	0.245	0.202	1.09	0.965	1.06	1.04	1.04	0.404	0.34	0.41	0.427	0.276
NCI-H1755	1.06	1.01	0.967	0.883	0.284	0.608	0.65	0.429	0.581	0.495	1.06	0.94	0.918	0.802	0.441	0.627	0.571	0.589	0.584	0.436
NCI-H2126	0.832	0.836	0.76	0.736	0.643	0.524	0.528	0.525	0.543	0.455	1.13	1.04	1.07	1	1.11	0.831	0.843	0.901	0.735	0.533
NCI-H1651	0.993	0.85	0.813	0.665	0.185	0.349	0.312	0.265	0.366	0.298	0.951	0.837	0.934	0.896	0.772	0.717	0.818	0.68	0.436	0.307
NCI-H2228	1.36	1.1	1.03	0.803	0.172	0.235	0.293	0.34	0.334	0.261	1.25	0.952	1.05	0.599	0.252	0.194	0.261	0.267	0.207	0.197
NCI-H460	1.09	–	0.975	0.131	0.0327	0.377	0.59	0.545	0.578	0.1	1.15	–	1.08	0.913	0.0451	0.445	0.339	0.445	0.329	0.0548
NCI-H2347	0.898	0.746	0.909	0.855	0.844	0.357	0.382	0.388	0.393	–	1.06	0.835	0.992	1.08	0.886	0.497	0.438	0.545	0.516	0.386
EMC-BAC-2	1.06	0.744	0.89	0.913	0.88	0.475	0.518	–	0.517	0.429	1.17	1.02	1.13	1.05	0.88	0.293	0.275	0.285	0.239	0.224
NCI-H1437	0.914	0.861	0.671	0.184	0.127	–	0.299	0.338	0.329	0.268	0.604	0.632	0.442	0.187	0.119	0.408	0.415	0.401	0.329	0.221
NCI-H650	1.28	–	1.12	0.918	0.652	–	0.44	0.439	0.436	0.306	0.905	–	0.753	0.899	0.499	0.738	0.713	0.68	0.608	0.338
NCI-H2009	1.06	0.879	0.962	0.744	0.177	0.496	0.504	0.496	0.42	0.306	1.2	0.954	1.19	0.944	0.186	0.727	0.696	0.703	0.416	0.308
NCI-H1734	1.15	0.939	1.15	0.903	0.393	0.397	0.331	0.369	0.382	0.348	0.948	0.773	0.922	0.712	0.292	0.252	0.248	0.291	0.257	0.237
SK-LU-1	0.972	1.06	0.803	0.698	0.487	0.382	0.59	0.653	0.68	0.467	1.18	–	1.36	1.53	0.913	0.278	0.328	0.276	0.294	0.185
